# ChEMBL document CHEMBL1135229, “Novel potent antagonists of human neuropeptide Y Y5 receptors. Part 3: 7-methoxy-1-hydroxy-1-substituted tetraline derivatives” (Bioorg Med Chem Lett, 2002)
# Molecular target: T1, Neuropeptide Y receptor type 1 (Homo sapiens, UniProt P25929)
# T1 sequence (P25929 whole entry): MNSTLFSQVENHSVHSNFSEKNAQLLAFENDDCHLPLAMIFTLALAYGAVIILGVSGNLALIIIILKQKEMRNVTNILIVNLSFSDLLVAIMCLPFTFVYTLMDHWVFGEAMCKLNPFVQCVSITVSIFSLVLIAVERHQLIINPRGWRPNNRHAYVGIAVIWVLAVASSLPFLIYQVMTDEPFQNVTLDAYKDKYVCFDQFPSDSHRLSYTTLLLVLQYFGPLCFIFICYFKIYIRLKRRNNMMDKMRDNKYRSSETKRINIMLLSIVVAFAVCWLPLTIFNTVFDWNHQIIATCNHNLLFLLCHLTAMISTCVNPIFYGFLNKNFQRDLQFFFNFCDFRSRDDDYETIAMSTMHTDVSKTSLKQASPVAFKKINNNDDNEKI
# Experiment: Compound was evaluated for the inhibitory activity against human Neuropeptide Y receptor type 1
row,IC50,Compound
1,12000 nM,COc1ccc2c(c1)CC(NCC1CCN(C(=O)Cn3c(=O)sc4ccc(Cl)cc43)CC1)CCC2 (stereo not drawn)

# Molecular target: T2, Neuropeptide Y receptor type 5 (Homo sapiens, UniProt Q15761)
# T2 sequence (Q15761 whole entry): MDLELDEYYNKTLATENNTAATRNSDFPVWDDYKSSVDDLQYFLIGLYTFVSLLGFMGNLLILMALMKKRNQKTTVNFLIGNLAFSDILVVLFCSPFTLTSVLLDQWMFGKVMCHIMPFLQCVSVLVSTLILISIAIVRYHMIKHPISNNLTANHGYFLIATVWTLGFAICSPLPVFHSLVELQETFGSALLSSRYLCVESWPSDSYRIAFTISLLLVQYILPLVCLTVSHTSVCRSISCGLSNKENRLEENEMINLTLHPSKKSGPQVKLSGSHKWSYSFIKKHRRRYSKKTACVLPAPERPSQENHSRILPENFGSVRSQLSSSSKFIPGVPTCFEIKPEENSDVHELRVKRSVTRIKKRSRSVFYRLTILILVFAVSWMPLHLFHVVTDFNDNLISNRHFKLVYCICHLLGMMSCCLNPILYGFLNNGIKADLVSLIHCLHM
# Experiment: Inhibition of 125 I-PYY binding to human Neuropeptide Y receptor type 5
row,Compound,IC50
1,COc1ccc2c(c1)C(O)(CNCCC1CCN(CCNS(=O)(=O)c3cccc4ccccc34)CC1)CCC2 (stereo not drawn),24 nM
2,O=C(Nc1nccs1)C1CCN(C(=O)Cn2c(=O)sc3ccc(Cl)cc32)CC1 [FR-73966],53 nM
3,COc1ccc2c(c1)C(O)(CNCC1CCN(CCNS(=O)(=O)c3cccc(Cl)c3C)CC1)CCC2 (stereo not drawn),11 nM
4,COc1ccc2c(c1)C(O)(CNCC1CCN(CCNS(=O)(=O)c3cccc4ccccc34)CC1)CCC2 (stereo not drawn),0.54 nM
5,COc1ccc2c(c1)C(O)(CNCC1CCN(CCNS(=O)(=O)c3cccc4ccccc34)CC1)CC2 (stereo not drawn),66 nM
6,COc1ccc2c(c1)CC(O)(CNCC1CCN(CCNS(=O)(=O)c3cccc4ccccc34)CC1)CCC2 (stereo not drawn),56 nM
7,COc1ccc2c(c1)C(O)(CNCC1CCN(CCNS(=O)(=O)c3cccc(C)c3)CC1)CCC2 (stereo not drawn),13 nM
8,COc1ccc2c(c1)CC(NCC1CCN(C(=O)CNS(=O)(=O)c3cccc4ccccc34)CC1)CCC2 (stereo not drawn),3.7 nM

# Next, values leading:
row,IC50,Compound
1,0.7 nM,COc1ccc2c(c1)CC(NCC1CCN(C(=O)Cn3c(=O)sc4ccc(Cl)cc43)CC1)CCC2 (stereo not drawn)
2,28 nM,COc1ccc2c(c1)C(O)(CNCC1CCN(C(=O)Cn3c(=O)sc4ccc(Cl)cc43)CC1)CCC2 (stereo not drawn)
3,1.2 nM,COc1ccc2c(c1)CC(CNC(=O)C1CCN(C(=O)Cn3c(=O)sc4ccc(Cl)cc43)CC1)CCC2 (stereo not drawn)
4,1 nM,COc1ccc2c(c1)C(O)(CNC(=O)C1CCN(C(=O)Cn3c(=O)sc4ccc(Cl)cc43)CC1)CCC2 (stereo not drawn)
